This is an account of results in patent US9187539B2, “Compositions having antiangiogenic activity and uses thereof” (The Johns Hopkins University, priority 2005, dated 2015).

“Also recorded” adds a separate entry of the source.

Test [1] has as its system angiogenesis (endothelial cell invasion of basement membrane extract with bFGF and VEGF). In words: Directed in vivo angiogenesis assay (DIVAA), subcutaneously implanted angioreactors. More on the design: species or system C57BL/6 mice. Particulars: 200 μg/ml peptide with bFGF and VEGF in the matrix; 11 days after implantation. The protocol: A directed in vivo anti-angiogenesis assay (DIVAA) was used to test the anti-angiogenic efficacy of the alpha 5 fibril of collagen type 4, which had the sequence: SAPFIECHGRGTCNYYANS (SEQ ID NO: 91). […] The peptide was solubilized in buffer solution at 200 μg/ml without an organic solvent. DIVAA is a reproducible and quantitative in-vivo method of assaying angiogenesis. It involves preparation of silicon cylinders of 20 μl volume, closed on one side, filled with some type of extracellular matrix (for example Matrigel or BME-basement membrane extract) with or without premixed angiogenic factors. These angioreactors are then implanted subcutaneously in the dorsal flank of mice. Accompanied with the onset of angiogenesis, vascular endothelial cells migrate into the extracellular matrix and form vessels in the angioreactor. […]
To obtain a quantitative assessment of the angiogenic invasion, the content of the angioreactors was removed from the cylinder and the endothelial cells were stained using FITC-Lectin (FIG. 38A) Once the tubes were extracted from the mice, the inside of the angioreactors was rinsed with 300 μl of a 36 kDa, bacillus-derived neutral metalloproteinase which is commercially available as Cellsperse (Trevigen, Inc., Gaithersburg, Md.), an extracellular matrix digesting solution and the content of the reactors as well as the rinse was transferred into a microtube. […]

In test [2] the test system is human umbilical vein endothelial cells (HUVECs). In words: HUVEC proliferation assay (WST-1), 3-day, 2,000 cells per well. It is filed as cell-based. Particulars: 3-day assay; for anti-proliferative activity in words at high peptide concentration: high/highest applied concentration (30 μg/ml where stated); for anti-proliferative activity in words: overall. The protocol: In addition to the 2 and 4 day proliferation experiment where 5,000 cells per well were seeded, the effects of the peptides on the proliferating ability of HUVECs were also studied using cells seeded at a density of 2,000 cells per well. This lower cell seeding density allowed the experiment to be extend for an additional day without changing the cell medium. The effects of the peptides when applied to the cells for 3 consecutive days is also reported herein. The proliferation assay again involved two steps. During the first step 2,000 cells per well for a 96-well plate were seeded without any extracellular matrix substrate on the wells overnight (8 hours). The initial cell culture medium was removed using a multichannel pipetor. To synchronize the cells, the cells were serum starved for 4 hours and the candidate peptides were applied. During serum starvation the cell culture medium was changed from a “full” medium to the “basal” medium, which contained no growth factors or serum. Serum starvation for 4 hours had no effect on the proliferation of the cells. For this assay, the logarithmic scale of four different concentrations of 0.01 μg/ml, 0.1 μg/ml, 1 μg/ml and 10 μg/ml of peptide was used. In addition, a larger concentration of 30 μg/ml peptide was also applied. Each of the concentrations was again tested in quadruplicate. After the third day of peptide application the WST-1 dye was applied for approximately 2 to 4 hours (usually after 3 hours the color saturates). The proliferation was later tested on the ELISA plate reader as described for the 2 and 4 day assay. Note that the 2- and 4-day and the 3-day protocols differed in that 5,000 cells/well versus 2,000 cells/well seeded, respectively.

The test system is the same in test [3]. In words: HUVEC proliferation assay (WST-1), 2- and 4-day, 5,000 cells per well. The class given is cell-based. To be noted: for concentration-response profile in words: 2- and/or 4-day assay. The protocol:
The effect of the various peptides on cell proliferation was assayed, by administering the peptides to human umbilical vein endothelial cells (HUVECs) in culture. 45 peptides belonging to four distinct families of proteins including the thrombospondin-1 containing proteins, the C-X-C chemokines, collagen derived peptides and peptides from tissue inhibitors of metalloproteinases were tested. The potency of each of the peptides was tested using the proliferation assay at 2 days and 4 days following administration of the peptides and a similar assay using a different cell density at 3 days. In the four-day experiments, the cell medium was changed after the second day of incubation and the peptide was replaced at the initial concentration together with the medium. TNP-470 is an antiangiogenic compound that was used as a positive control for assessing anti-angiogenic efficacy. The activity of each polypeptide was, therefore, expressed as a percentage of TNP-470 activity, i.e., the optical density obtained experimentally is scaled such that the negative control is 0% and the positive control is 100% as explained below (FIG. 4). Each plate included a well having HUVEC cells that received 0.1 μg/ml TNP-470. For example, a peptide having the same effect on endothelial cell proliferation would have 100% of the activity of TNP-470. Note that activity could exceed 100%. In this assay, the effects of the predicted anti-angiogenic fragments on the ability of HUVECs to proliferate was characterized. […] A commonly used methodology to test for proliferation is to monitor the viability and metabolic activity of endothelial cells, in the presence of the anti-angiogenic fragments at different concentrations and various time steps. The cell proliferation reagent WST-1 was used as a substrate/assay to measure the metabolic activity of viable cells. WST-1 is a colorimetric, non-radioactive assay and can be performed in a microplate. It is suitable for measuring cell proliferation, cell viability or cytotoxicity. The assay is based on the reduction a red tetrazolium salt, WST-1, by viable, metabolically active, cells to form the yellow formazan crystals soluble in the cell medium. […] The cells are cultured described above. Once cells have reached 80% confluence they are trypsinized and resuspended in EGM-2. The cell density is estimated using a hemocytometer. All of the endothelial cells used were from passage 4 to passage 8. The proliferation assay involved two steps. During the first step the cells, approximately 5,000 cells per well for a 96-well plate, were seeded without any extracellular matrix substrate on the wells overnight (8 hours). The initial cell culture medium was removed using a multichannel pipetor and the candidate peptides were applied. A logarithmic scale of four different concentrations of 0.01 μg/ml, 0.1 μg/ml, 1 μg/ml and 10 μg/ml of each peptide was used. Each of the concentrations was tested in quadruplicate. The viability of the cells was challenged at 2 and 4 days upon the application of the peptide. As a positive control for decreased viability, 0.1 μg/ml of TNP-470 (O-(chloro-acetyl-carbamoyl) fumagillol, a synthetic analogue of fumagillin; TNP-470 was provided by NCI, was provided along with the medium, and as a negative control for normal viability, the cells were cultured without the addition of any agent. The cells were then incubated with 10 μl per well of the red WST-1 reagent for approximately 2 to 4 hours. During this incubation period, viable cells converted, in their mitochondria, the red WST-1 to the yellow formazan crystals which dissolve in the medium. The second step of the assay involved the quantification of the changes in proliferation which was performed by measuring the change in color after lysing the cells. The samples were read using the ELISA plate reader Victor3 V (Perkin Elmer) at a wavelength of […]. The amount of color produced is directly proportional to the number of viable cells. […]
(Tetrazolium assays rely on reduction of a dye to a coloured formazan, in cell work by metabolically active cells.)

[4] abbreviates: 2- and 4-day assay, day not specified or constant throughout the four days.

On to “SAPFIECHGRGTCNYYANS [SEQ ID NO: 91, α5CIV AAC27816.1: 1626-1644]”, for which, in test [1], the “endothelial cell invasion of the extracellular matrix in angioreactors” value was “Fewer endothelial cells invaded the extracellular matrix” and the “inhibition of angiogenesis in angioreactors” value is “strongly inhibited angiogenesis”. Further, the “anti-proliferative activity in words at high peptide concentration” value in test [2] is “activity increases”. Moreover, the “anti-proliferative activity in words” value in test [3] (2- and 4-day assay, overall) was “low activity”.
On to “YCNIHQVCHYAQRNDRSYWL [SEQ ID NO: 86, α4CIV CAA56943.1: 1524-1543]”, for which the “concentration-response profile in words” value in test [2] is “increasing at higher peptide concentrations”. Further, the “anti-proliferative activity in words” value is on record as “greater” in test [2]; “low anti-proliferative activity” in test [3] (2- and 4-day assay, overall).
As for “NGKQVCLDPEAPFLKKVIQKILDS [SEQ ID NO: 98, GCP-2/CXCL6 AAH13744.1: 86-109]”, in test [2], the “concentration-response profile in words” value was “biphasic behavior” and the “anti-proliferative activity in words at high peptide concentration” value was “increased”. In addition, the “anti-proliferative activity, TNP-470 = 100%” value in test [3] (0.01 μg/ml peptide, 2 days) was 30%. For the same sequence, in test [3] (10 μg/ml peptide, 2- and 4-day assay), the “anti-proliferative activity in words at 10 μg/ml” value is recorded as “Virtually no anti-proliferative activity”. For the same sequence, in test [3] (setting [4]), the “anti-proliferative activity (maximum or stated level), scaled so that TNP-470 = 100%” value was 35%. Further, the “concentration-response profile in words” value in test [3] was “biphasic behavior; also recorded: biphasic response”.
For the sequence “AAPFLECQGRQGTCHFFAN [SEQ ID NO: 87, α4CIV CAA56943.1: 1628-1646]”, the “concentration-response profile in words” value in test [2] is recorded as “activity increased with increasing the applied peptide concentration”. For the same sequence, the results for the “anti-proliferative activity in words” value in test [2] and in test [3] (2 days of peptide application) were “similar” and “intermediate activity”, respectively.
As to “GPWERCTAQCGGGIQARRR [SEQ ID NO: 60, Semaphorin 5A NP_003957.1: 660-678]”, the “anti-proliferative activity (maximum or stated level), scaled so that TNP-470 = 100%” value in test [2] (0.01-30 μg/ml) was determined as 35%; in test [3] (setting [4]), 25%. The “peptide concentration at which maximum activity was observed” value in test [3] (2- and 4-day assay, day not specified) is “higher than 1 μg/ml”. Moreover, the “anti-proliferative activity in words” value is given as “minimum anti-proliferative activity” in test [3] (2 days of peptide application) and “intermediate activity” in test [3] (4 days of peptide application).
For the sequence “SPWSQCTASCGGGVQTR [SEQ ID NO: 24, ADAMTS-16 Q8TE57: 1133-1149]”, the “anti-proliferative activity in words at high peptide concentration” value in test [2] is recorded as “increase in peptide activity”. For the same sequence, the “concentration-response profile in words” value in test [3] is reported as “biphasic response”. The “anti-proliferative activity in words” value in test [3] (4 days of peptide application) is “strong activity”. Also, the “anti-proliferative activity (maximum or stated level), scaled so that TNP-470 = 100%” value in test [3] (4 days of peptide application, 0.01-10 μg/ml) came to 30%.
